Where “and” joins values, the source holds several entries; their conditions need not be identical. Identical values can stand only once.
Experiments:
[1] = Glucagon blood concentration, nasal powder with hydroxyapatite (Test Example 8); type: in vivo, healthy male adults (human)
Procedure: A nasally administrable composition in powdery form was prepared by formulating glucagon (from hog spleen) as a physiologically active peptide at the rate of 40 mg per composition (1,000 mg) with hydroxyapatite as a carrier having a mean particle size ranging from 40 to 45 μm.
The resulting composition was nasally administered once at a dose of 1.2 glucagon unit/30 mg to three healthy male adults and the blood (2.5 ml) was collected from each of the tested adults prior to administration and then at 5, 10, 15, 20, 30, 45, 60, 90, 120, 150 and 180 minutes after administration. The concentration of the glucagon in each of the collected blood samples was assayed with a standard RIA assay kit.

[2] = Nasal absorption, clinical effect and irritation (general statement); type: in vivo; conditions: powder in specific carrier, nasal route
[3] = Glucagon blood concentration, nasal powder with calcium carbonate (Test Example 9); type: in vivo, healthy male adults (human); conditions: for Concentration of glucagon in the blood: nasal 1.2 glucagon unit/30 mg, individual cases No. 21-24 in order
Procedure: (§1) A nasally administrable composition in powdery form was prepared by formulating glucagon (from hog spleen) as a physiologically active peptide at the rate of 40 mg per composition (1,000 mg) with calcium carbonate as a carrier having a mean particle size ranging from 40 to 45 μm.
[…] The concentration of the glucagon in each of the collected blood samples was assayed with a standard RIA assay kit.

[4] = Glucagon blood concentration, nasal powder with calcium carbonate, two doses (Test Example 12); type: in vivo, healthy male adults (human)
Procedure: as §1
The resulting composition was nasally administered once at a dose of 0.4 glucagon unit/30 mg to two healthy male adults and 2 glucagon unit/30 mg to another two healthy male adults, and the blood (2.5 ml) was collected from each of the tested adults prior to administration and then at 5, 10, 15, 20, 30, 45, 60, 90, 120, 150 and 180 minutes after administration. The concentration of the glucagon in each of the collected blood samples was assayed with a standard RIA assay kit.

For glucagon, the “absorption through nasal route” value [1] was “high extent of absorption”, the “Concentration of glucagon in the blood” value ([1]; 0 min (predose), nasal 1.2 glucagon unit/30 mg, individual cases No. 17-20 in order) was 0.051 ng/mL and 0.046 ng/mL and 0.036 ng/mL and 0.068 ng/mL and the “absorption into the body” value [2] was “well absorbed into the body”. The clinical effects [2] was “high clinical effects”, the “absorption through nasal route” value [3] was “high extent of absorption” and the “Concentration of glucagon in the blood” value ([3]; 0 min (predose)) was 0.034 ng/mL and 0.056 ng/mL and 0.042 ng/mL and 0.048 ng/mL. For the same substance, the “Concentration of glucagon in the blood” value ([3]; 5 min) was 0.073 ng/mL and 0.079 ng/mL and 0.08 ng/mL and 0.053 ng/mL, the “Concentration of glucagon in the blood” value ([3]; 10 min) was 0.097 ng/mL and 0.091 ng/mL and 0.08 ng/mL and 0.044 ng/mL and the “Concentration of glucagon in the blood” value ([3]; 15 min) was 0.086 ng/mL and 0.079 ng/mL and 0.083 ng/mL and 0.053 ng/mL. For the same substance, the “Concentration of glucagon in the blood” value ([3]; 20 min) was 0.085 ng/mL and 0.089 ng/mL and 0.082 ng/mL and 0.05 ng/mL, the “Concentration of glucagon in the blood” value ([3]; 30 min) was 0.071 ng/mL and 0.077 ng/mL and 0.09 ng/mL and 0.055 ng/mL and the “Concentration of glucagon in the blood” value ([3]; 45 min) was 0.073 ng/mL and 0.089 ng/mL and 0.076 ng/mL and 0.049 ng/mL. For the same substance, the “Concentration of glucagon in the blood” value ([3]; 60 min) was 0.064 ng/mL and 0.079 ng/mL and 0.077 ng/mL and 0.046 ng/mL, the “Concentration of glucagon in the blood” value ([3]; 90 min) was 0.062 ng/mL and 0.078 ng/mL and 0.073 ng/mL and 0.047 ng/mL and the “Concentration of glucagon in the blood” value ([3]; 120 min) was 0.056 ng/mL and 0.079 ng/mL and 0.088 ng/mL and 0.046 ng/mL. The “Concentration of glucagon in the blood” value ([3]; 150 min) was 0.052 ng/mL and 0.067 ng/mL and 0.079 ng/mL and 0.054 ng/mL, the “Concentration of glucagon in the blood” value ([3]; 180 min) was 0.051 ng/mL and 0.066 ng/mL and 0.062 ng/mL and 0.05 ng/mL and the “Concentration of glucagon in the blood” value ([4]; 0 min (predose), nasal 0.4 glucagon unit/30 mg, individual cases No. 33-34 in order) was 0.112 ng/mL and 0.06 ng/mL. For the same substance, the “Concentration of glucagon in the blood” value ([4]; 0 min (predose), nasal 2 glucagon unit/30 mg, individual cases No. 35-36 in order) was 0.053 ng/mL and 0.097 ng/mL, the “absorption through nasal route” value ([4]; 0.4 and 2 glucagon unit) was “high extent of absorption” and the “Concentration of glucagon in the blood” value ([4]; 5 min, nasal 0.4 glucagon unit/30 mg, individual cases No. 33-34 in order) was 0.115 ng/mL and 0.065 ng/mL. For the same substance, the “Concentration of glucagon in the blood” value ([4]; 5 min, nasal 2 glucagon unit/30 mg, individual cases No. 35-36 in order) was 0.076 ng/mL and 0.109 ng/mL, the “Concentration of glucagon in the blood” value ([4]; 10 min, nasal 0.4 glucagon unit/30 mg, individual cases No. 33-34 in order) was 0.119 ng/mL and 0.077 ng/mL and the “Concentration of glucagon in the blood” value ([4]; 10 min, nasal 2 glucagon unit/30 mg, individual cases No. 35-36 in order) was 0.116 ng/mL and 0.104 ng/mL. The “Concentration of glucagon in the blood” value ([4]; 15 min, nasal 0.4 glucagon unit/30 mg, individual cases No. 33-34 in order) was 0.13 ng/mL and 0.072 ng/mL, the “Concentration of glucagon in the blood” value ([4]; 15 min, nasal 2 glucagon unit/30 mg, individual cases No. 35-36 in order) was 0.085 ng/mL and 0.096 ng/mL and the “Concentration of glucagon in the blood” value ([4]; 20 min, nasal 0.4 glucagon unit/30 mg, individual cases No. 33-34 in order) was 0.127 ng/mL and 0.079 ng/mL. For the same substance, the “Concentration of glucagon in the blood” value ([4]; 20 min, nasal 2 glucagon unit/30 mg, individual cases No. 35-36 in order) was 0.102 ng/mL and 0.118 ng/mL, the “Concentration of glucagon in the blood” value ([4]; 30 min, nasal 0.4 glucagon unit/30 mg, individual cases No. 33-34 in order) was 0.116 ng/mL and 0.086 ng/mL and the “Concentration of glucagon in the blood” value ([4]; 30 min, nasal 2 glucagon unit/30 mg, individual cases No. 35-36 in order) was 0.056 ng/mL and 0.1 ng/mL. The “Concentration of glucagon in the blood” value ([4]; 45 min, nasal 0.4 glucagon unit/30 mg, individual cases No. 33-34 in order) was 0.121 ng/mL and 0.075 ng/mL, the “Concentration of glucagon in the blood” value ([4]; 45 min, nasal 2 glucagon unit/30 mg, individual cases No. 35-36 in order) was 0.094 ng/mL and 0.105 ng/mL and the “Concentration of glucagon in the blood” value ([4]; 60 min, nasal 0.4 glucagon unit/30 mg, individual cases No. 33-34 in order) was 0.137 ng/mL and 0.061 ng/mL. For the same substance, the “Concentration of glucagon in the blood” value ([4]; 60 min, nasal 2 glucagon unit/30 mg, individual cases No. 35-36 in order) was 0.079 ng/mL and 0.122 ng/mL, the “Concentration of glucagon in the blood” value ([4]; 90 min, nasal 0.4 glucagon unit/30 mg, individual cases No. 33-34 in order) was 0.122 ng/mL and 0.066 ng/mL and the “Concentration of glucagon in the blood” value ([4]; 90 min, nasal 2 glucagon unit/30 mg, individual cases No. 35-36 in order) was 0.06 ng/mL and 0.117 ng/mL. The “Concentration of glucagon in the blood” value ([4]; 120 min, nasal 0.4 glucagon unit/30 mg, individual cases No. 33-34 in order) was 0.108 ng/mL and 0.057 ng/mL, the “Concentration of glucagon in the blood” value ([4]; 120 min, nasal 2 glucagon unit/30 mg, individual cases No. 35-36 in order) was 0.069 ng/mL and 0.099 ng/mL and the “Concentration of glucagon in the blood” value ([4]; 150 min, nasal 0.4 glucagon unit/30 mg, individual cases No. 33-34 in order) was 0.111 ng/mL and 0.076 ng/mL. For the same substance, the “Concentration of glucagon in the blood” value ([4]; 150 min, nasal 2 glucagon unit/30 mg, individual cases No. 35-36 in order) was 0.069 ng/mL and 0.106 ng/mL, the “Concentration of glucagon in the blood” value ([4]; 180 min, nasal 0.4 glucagon unit/30 mg, individual cases No. 33-34 in order) was 0.11 ng/mL and 0.074 ng/mL and the “Concentration of glucagon in the blood” value ([4]; 180 min, nasal 2 glucagon unit/30 mg, individual cases No. 35-36 in order) was 0.06 ng/mL and 0.105 ng/mL.

— patent US5603943A, “Nasally administrable compositions” (Dott Research Laboratory, priority 1994, dated 1997)
